Laboratory results reported in ChEMBL document CHEMBL5724696, “Autophagy assay results for EUbOPEN Chemogenomics Library” (2024).
“And” between values parts separate entries of the source, which are not always exact repeats. Identical values can stand only once.

Tests used:
Type in all cases: functional, Homo sapiens
[1] = system: TERT-RPE1; assay: (§1) Here: values are normalized to the negative (DMSO; defined as 0% autophagy induction) and positive (250nM Torin1; mTOR inhibitor; defined as maximal inducer of autophagy = 100%) control compounds and represented as % of autophagy induction. […] The impact of autophagy induction on cells is complex and depends on the affected target. As such, the magnitude of a phenotype may not be equally mirrored in the %-value of autophagy induction and vice versa. The dynamics of the induction may indicate the mode of activation: e.g. activation via phosphorylation or a signaling cascade may occur fast, while activation via transcription factors may take considerably longer. […] Of note, treatment concentrations may be sub-optimal for specific compounds, leading to false negative annotations.; details: Culturing Media DMEM/F12 (1:1), 1 % Penicillin/Streptomycin, 10% Fetal bovin serum Add-On: No, Screening Media Control DMEM/F12 (1:1), Screening Media Samples DMEM/F12 (1:1)
[2] = system: U2OS; assay: as §1; details: Culturing Media DMEM, 1 % Penicillin/Streptomycin, 10% Fetal bovin serum Add-On: No, Screening Media Control DMEM, Screening Media Samples DMEM
[3] = system: U2OS; assay: as §1; details: Culturing Media DMEM, 1 % Penicillin/Streptomycin, 10% Fetal bovin serum Add-On: No, Screening Media Control DMEM, Screening Media Samples DMEM; remark: listed apart in the source
[4] = Compound Concentration 0.5 uM, Timepoint 12 hours
[5] = Compound Concentration 0.5 uM, Timepoint 24 hours
[6] = Compound Concentration 0.5 uM, Timepoint 36 hours
[7] = Compound Concentration 0.5 uM, Timepoint 60 hours
[8] = Compound Concentration 2 uM, Timepoint 12 hours
[9] = Compound Concentration 2 uM, Timepoint 24 hours
[10] = Compound Concentration 2 uM, Timepoint 36 hours
[11] = Compound Concentration 2 uM, Timepoint 60 hours
[12] = Compound Concentration 10 uM, Timepoint 12 hours
[13] = Compound Concentration 10 uM, Timepoint 24 hours
[14] = Compound Concentration 10 uM, Timepoint 36 hours
[15] = Compound Concentration 10 uM, Timepoint 60 hours

CCCNS(=O)(=O)Nc1ncnc(OCCOc2ncc(Br)cn2)c1-c1ccc(Br)cc1
autophagy induction ([1]; Compound Concentration 0.5 uM, Timepoint 12 hours, 12 h, 0.5 µM): -0.7197% and -7.3982% | autophagy induction ([1]; Compound Concentration 0.5 uM, Timepoint 24 hours, 24 h, 0.5 µM): 0.659% and -8.96% | autophagy induction ([1]; Compound Concentration 0.5 uM, Timepoint 36 hours, 36 h, 0.5 µM): -3.018% and -8.201% | autophagy induction ([1]; Compound Concentration 0.5 uM, Timepoint 60 hours, 60 h, 0.5 µM): -5.286% and -10.1731% | autophagy induction ([1]; Compound Concentration 2 uM, Timepoint 24 hours, 24 h, 2 µM): -0.7464% and 17.5664% | autophagy induction ([1]; Compound Concentration 2 uM, Timepoint 36 hours, 36 h, 2 µM): -1.802% and 12.9792% | autophagy induction ([1]; Compound Concentration 2 uM, Timepoint 60 hours, 60 h, 2 µM): -3.01% and 8.651% | autophagy induction ([1]; Compound Concentration 10 uM, Timepoint 12 hours, 12 h, 10 µM): -3.714% and 17.3261% | autophagy induction [2, 4]: -3.964% | autophagy induction [2, 5]: -4.032% | autophagy induction [2, 6]: -61.3535% | autophagy induction [2, 7]: -1.132% | autophagy induction [2, 8]: -0.4685% | autophagy induction [2, 9]: -1.227% | autophagy induction [2, 10]: -59.7666% | autophagy induction [2, 11]: -0.5161% | autophagy induction [2, 12]: 11.7925% | autophagy induction [2, 13]: 5.282% | autophagy induction [2, 14]: -57.2377% | autophagy induction [2, 15]: -0.5877% | autophagy induction [3, 4]: 2.901% | autophagy induction [3, 5]: -2.846% | autophagy induction [3, 6]: 0.07503% | autophagy induction [3, 7]: -9.912% | autophagy induction [3, 8]: 12.0444% | autophagy induction [3, 9]: 9.078% | autophagy induction [3, 10]: 7.396% | autophagy induction [3, 11]: -1.934% | autophagy induction [3, 12]: 26.4347% | autophagy induction [3, 13]: 18.1089% | autophagy induction [3, 14]: 17.8738% | autophagy induction [3, 15]: 1.732%

O=C(O)C1CN(Cc2ccc(-c3nc4cc(Cc5ccccc5F)ccc4s3)c(F)c2)C1
autophagy induction [1, 4]: -8.917% | autophagy induction [1, 5]: -10.8072% | autophagy induction [1, 6]: -9.562% | autophagy induction [1, 7]: -5.859% | autophagy induction [1, 8]: -8.468% | autophagy induction [1, 9]: -9.963% | autophagy induction [1, 10]: -11.3812% | autophagy induction [1, 11]: -13.3438% | autophagy induction [1, 12]: -4.678% | autophagy induction [1, 13]: -6.178% | autophagy induction [1, 14]: -7.73% | autophagy induction [1, 15]: -6.2118% | autophagy induction [2, 4]: 4.055% | autophagy induction [2, 5]: -0.4566% | autophagy induction [2, 6]: -1.32% | autophagy induction [2, 7]: -0.5858% | autophagy induction [2, 8]: 1.76% | autophagy induction [2, 9]: 0.3602% | autophagy induction [2, 10]: -0.6521% | autophagy induction [2, 11]: -0.7655% | autophagy induction [2, 12]: -1.302% | autophagy induction [2, 13]: -1.781% | autophagy induction [2, 14]: -1.367% | autophagy induction [2, 15]: -0.5842% | autophagy induction [3, 4]: 3.797% | autophagy induction [3, 5]: -4.944% | autophagy induction [3, 6]: -8.688% | autophagy induction [3, 7]: -8.1655% | autophagy induction [3, 8]: 22.0588% | autophagy induction [3, 9]: 16.1887% | autophagy induction [3, 10]: 14.8366% | autophagy induction [3, 11]: 4.458% | autophagy induction [3, 12]: 26.4516% | autophagy induction [3, 13]: 18.766% | autophagy induction [3, 14]: 13.3531% | autophagy induction [3, 15]: 2.726%

CC(C)NC(=O)c1ccc(C#Cc2ccncc2)cn1
autophagy induction [1, 4]: -8.654% | autophagy induction [1, 5]: -9.257% | autophagy induction [1, 6]: -14.0532% | autophagy induction [1, 7]: -16.4507% | autophagy induction [1, 8]: -4.036% | autophagy induction [1, 9]: -5.1239% | autophagy induction [1, 10]: -6.815% | autophagy induction [1, 11]: -8.286% | autophagy induction [1, 12]: 1.565% | autophagy induction [1, 13]: 2.778% | autophagy induction [1, 14]: 9.008% | autophagy induction [1, 15]: 16.9694% | autophagy induction [2, 4]: -9.113% | autophagy induction [2, 5]: -5.012% | autophagy induction [2, 6]: -3.818% | autophagy induction [2, 7]: -1.861% | autophagy induction [2, 8]: -10.7877% | autophagy induction [2, 9]: -3.358% | autophagy induction [2, 10]: -2.622% | autophagy induction [2, 11]: -1.746% | autophagy induction [2, 12]: -0.7026% | autophagy induction [2, 13]: -0.9948% | autophagy induction [2, 14]: -1.134% | autophagy induction [2, 15]: -0.8185% | autophagy induction [3, 4]: 0.5322% | autophagy induction [3, 5]: 0.2252% | autophagy induction [3, 6]: -0.5555% | autophagy induction [3, 7]: 0.1744% | autophagy induction [3, 8]: 1.689% | autophagy induction [3, 9]: 1.76% | autophagy induction [3, 10]: 0.3174% | autophagy induction [3, 11]: -4.895% | autophagy induction [3, 12]: -23.095% | autophagy induction [3, 13]: -7.509% | autophagy induction [3, 14]: -0.1897% | autophagy induction [3, 15]: 10.5553%
